Patent publication US10512631B2, “Chalcone compounds” (Beth Israel Deaconess Medical Center, Inc., priority 2015, dated 2019)

Experiments:
Format in all cases: cell-based
DNA synthesis = test: BrDU proliferation; conditions: data not shown
[1] = target: T1, ASK1 kinase and STMN1 interaction (Homo sapiens, UniProt Q99683); test: Immunoprecipitation of STMN1 / immunoblotting of P-ASK1; conditions: A549 cells, 1 μM, 30 minutes
T1 construct: immunoblotting with antibody against P-ASK1 (Ser83) in A549 cells treated with 1 μM Compound 6 or DMSO; endogenous in cells; host or cells: A549 cells
T1 sequence (Q99683 1-1374): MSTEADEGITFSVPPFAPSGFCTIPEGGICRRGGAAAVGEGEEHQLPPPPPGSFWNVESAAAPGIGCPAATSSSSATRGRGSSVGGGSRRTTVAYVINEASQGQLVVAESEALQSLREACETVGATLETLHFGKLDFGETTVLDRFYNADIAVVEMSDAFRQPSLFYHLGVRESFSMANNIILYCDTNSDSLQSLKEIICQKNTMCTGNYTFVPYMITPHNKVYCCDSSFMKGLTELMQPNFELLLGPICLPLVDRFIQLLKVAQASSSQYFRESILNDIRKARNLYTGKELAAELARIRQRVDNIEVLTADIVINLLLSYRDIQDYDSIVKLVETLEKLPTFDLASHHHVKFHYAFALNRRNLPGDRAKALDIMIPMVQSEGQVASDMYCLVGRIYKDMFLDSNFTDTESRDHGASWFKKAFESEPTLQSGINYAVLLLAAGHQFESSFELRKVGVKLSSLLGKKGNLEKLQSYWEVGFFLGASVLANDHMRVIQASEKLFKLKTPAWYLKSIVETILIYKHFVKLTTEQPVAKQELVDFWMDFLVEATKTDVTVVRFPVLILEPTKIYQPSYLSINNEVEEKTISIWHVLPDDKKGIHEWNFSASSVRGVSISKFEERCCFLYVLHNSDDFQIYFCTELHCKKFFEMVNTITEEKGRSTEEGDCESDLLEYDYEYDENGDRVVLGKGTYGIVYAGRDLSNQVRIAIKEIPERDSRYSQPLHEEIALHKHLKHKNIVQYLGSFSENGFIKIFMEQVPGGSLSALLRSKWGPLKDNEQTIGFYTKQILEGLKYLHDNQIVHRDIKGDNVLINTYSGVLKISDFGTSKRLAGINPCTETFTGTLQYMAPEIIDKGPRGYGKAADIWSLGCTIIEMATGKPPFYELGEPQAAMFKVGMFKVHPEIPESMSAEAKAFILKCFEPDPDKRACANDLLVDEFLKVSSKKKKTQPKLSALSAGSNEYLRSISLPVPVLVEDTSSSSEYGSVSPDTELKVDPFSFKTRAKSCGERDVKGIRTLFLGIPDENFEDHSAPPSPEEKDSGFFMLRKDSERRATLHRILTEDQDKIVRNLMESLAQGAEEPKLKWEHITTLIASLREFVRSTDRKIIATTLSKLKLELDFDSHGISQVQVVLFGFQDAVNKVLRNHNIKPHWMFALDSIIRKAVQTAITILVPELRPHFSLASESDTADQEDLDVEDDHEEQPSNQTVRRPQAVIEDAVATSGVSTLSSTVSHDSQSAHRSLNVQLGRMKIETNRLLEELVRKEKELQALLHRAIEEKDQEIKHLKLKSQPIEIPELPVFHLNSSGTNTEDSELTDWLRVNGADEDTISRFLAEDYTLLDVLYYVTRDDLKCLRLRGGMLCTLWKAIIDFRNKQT
Description: Snap-frozen tissue samples were homogenized in ice-cold tissue lysis buffer (250 mM NaCl, 5 mM EDTA, 1% Triton X-100, 10 mM Tris-HCl; pH 7.5) containing the protease inhibitor cocktail Complete Mini (Roche). For co-immunoprecipitation, 200 μg protein lysates in RIPA buffer and the protease inhibitor cocktail were mixed with appropriate antibodies and 30 μl Protein A/G Plus-agarose beads (Santa Cruz Biotechnology) and then rotated for 1 hour at room temperature. The proteins were washed with RIPA buffer and eluted (95° C., 5 min in SDS loading buffer). Immunoblotting was performed as previously described in Chin et al., Proc. Natl. Acad. Sci. USA 2007, 104(12), 5109-14. Antibodies: P (Ser967)-ASK1 (Cell Signaling), Ask1 (Cell Signaling), P-STMN1 (Ser16) (Cell Signaling), STMN1 (Cell Signaling), 13-Actin (Sigma) were used at 1:1000 dilution.

A549 = test: Cytoxicity / crystal violet staining, A549; conditions: average of triplicates, % of apoptotic cells vs DMSO controls, N.A. = not active at 10 μM
Description: PC3 (provided by Dr. Steven Balk's laboratory in Department of Medicine at Beth Israel Deaconess Medical Center), PANC02 and CRL2119 (provided by Dr. Pankaja Seth's laboratory in Department of Medicine at Beth Israel Deaconess Medical Center), A549 (ATCC) cell lines were cultured according to manufacturer's protocols. Briefly, PC3 were cultured in RPMI medium supplemented with 10% FBS (Atlanta). PANC-2, A549 and CRL2119 were cultured in DMEM High medium supplemented with 10% FBS (Atlanta). Human bronchial epithelial cells (BEC) were cultured in Airway Epithelial Cell Basal Medium with the Bronchial Epithelial cell growth kit (ATCC) according to manufacturer's protocol and used at passages 3-5.
Cells were seeded at 5×10^3 concentration in 96 well plates and treated with test compounds or DMSO (0.001-10 μM) for 72 hours. Culture medium was removed and cells were stained with crystal violet solution (Sigma-Aldrich) for 15 minutes while shaking at room temperature. Crystal violet was then removed and cells were repeatedly washed in water. Attached cells stained with crystal violet were dried and then resuspended in 10% acetic acid. Absorbance was measured at 562 nm. The intensity of staining corresponded directly to the number of live cells.

PC3 cells [2] = test: Immunostaining of α-tubulin and β-actin in PC3 cells; conditions: 24 hours
Description: Immunofluorescence and immunostaining on cell lines and tumor samples were performed as described in Wegiel et al, Cancer research 2013, 73(23), 7009-21. Anti-mouse STMN1, anti-P (Ser10)-Histone H3, and α-tubulin antibody were obtained from Cell Signaling. β-actin antibody was obtained from Sigma-Aldrich. […] After immunofluorescence staining, the number of P-Histone H3 was quantified per field of view at 40× magnification using Zeiss Axiovert Microscope.

PC3 = test: Cytoxicity / crystal violet staining, PC3; conditions: Homo sapiens, PC-3; 0.01-5 μM for 72 hours, n=4
PC3 cells [3] = test: RT2 profiler PCR array Human Cancer Pathway; conditions: after treatment vs DMSO
Description: RT^2 profiler PCR array Human Cancer Pathway was purchased from SA Biosciences. RNA from PC3 cells treated with DMSO or Compound 6 were isolated and prepared for RT-PCR following manufacturer' protocol. Analysis was performed online using the software provided by SA Biosciences.

Question: For `Cn1ccc2cc(/C=C3\CCc4ccc(F)cc4C3=O)ccc21` [Compound 6, (2E)-7-fluoro-2-[(1-methyl-1H-indol-5-yl)methylidene]-1,2,3,4-tetrahydronaphthalen-1-one], which “DNA synthesis (BrDU proliferation)” value (DNA synthesis) is on record?
Answer: did not inhibit DNA synthesis

Question: And the “ASK1 kinase and STMN1 interaction” value [1]?
Answer: significantly blocked

Question: What about the “Cytoxicity (% cell killing at 10 μM) A549” value (A549) of the same compound?
Answer: 47%

Question: And the β-actin microfilament cytoskeleton (PC3 cells [2]; 1 μM)?
Answer: disintegrated β-actin microfilament cytoskeleton

Question: And the “microtubule stability (α-tubulin immunostaining)” value (PC3 cells [2]; Compound 6 1 μM or docetaxel 20 nM)?
Answer: suppressed mitotic spindle formation, as well as accumulation of α-tubulin and microtubules

Question: What about the IC50 (PC3) of the same compound?
Answer: 147 nM

Question: And the “adrenomedullin mRNA elevation” value (PC3 cells [3])?
Answer: more than 4 fold

Question: And the “stathmin (STMN1) mRNA elevation” value (PC3 cells [3])?
Answer: more than 4 fold
